Earlier results as cited in patent US20060205810A1, “Platinum therapeutic combinations” (Schering Corporation, priority 2004, published 2006).

Assays:
[1] = tested on: intrinsic and acquired resistance to cisplatin; details: cell culture studies
[2] = tested on: small cell lung cancer (SCLC); details: small cell lung cancer patients
[3] = incubated with fresh human whole blood in vitro
[4] = tested on: human ovarian carcinoma cells

| Structure (SMILES) | circumvention of resistance to cisplatin [1] | complete responses [2] | median overall survival time [2] [days] | tumor response rate ([2]; 10 of 26) [%] | added platinum associated with red blood cells [3] [%] | half-life for the disappearance of the drug [3] [min] | cytotoxicity compared with cisplatin [4] |
| --- | --- | --- | --- | --- | --- | --- | --- |
| CC(=O)[O][Pt]([NH2])([Cl])([Cl])([NH]C1CCCCC1)[O]C(C)=O [satraplatin] | can partially circumvent intrinsic and acquired resistance to cisplatin | no complete responses | 210 | 38 | 62 | 6.3 |  |
| N.NC1CCCCC1.[Cl-].[Cl-].[Pt+2] [JM118] | can partially circumvent intrinsic and acquired resistance to cisplatin |  |  |  |  |  | greater cytotoxicity than cisplatin |
